From patent US7973147B2, “K04-0144 substance and a process for production thereof” (The Kitasato Institute, priority 2006, dated 2011)
Converted amounts (≈) assume the structure as drawn. “Also recorded” adds a separate entry of the source. Read-outs that look alike come from different tables or passages of the source.

Experiments:
[1] = test system: MRSA 70; assay: MIC, agar plate dilution method; assay type: cell-based, methicillin-resistant Staphylococcus aureus; conditions: Staphylococcus aureus
Procedure: (§1) Assay of minimum inhibitory concentration (MIC) was performed according to the agar plate dilution method (Method of Japan Society of Chemotherapy, CHEMOTHERAPY 29, 76-79, 1981).
(§2) Test organisms used were 27 types of microorganisms including clinical isolates of methicillin-resistant Staphylococcus aureus. Each test organism was cultured in Mueller-Hinton broth (2.1% w/v) (DIFCO) at 37° C. for 20 hours, and the cultured cells were suspended to about 10^6 cell counts/ml in the same medium, then was used as the microbial suspension for inoculation. The prepared microbial suspension was smeared by using the microplanter on MHA medium (Mueller-Hinton broth 2.1% (w/v) and agar 1.5%) containing K04-0144A substance, K04-0144B substance or K04-0144C substance, each of which was subjected to two-fold stepwise dilution from 128 μg/ml. After culturing at 37° C. for 20 hours, MIC was determined by macroscopically confirming the growth of microorganisms. Vancomycin, arbekacin and linezolid were used as a comparative control.

[2] = test system: MRSA 92-1191; assay: MIC, agar plate dilution method; assay type: cell-based, methicillin-resistant Staphylococcus aureus; conditions: Staphylococcus aureus
Procedure: as §1, §2

[3] = test system: MRSA N315 IR94 HR-1; assay: MIC, agar plate dilution method; assay type: cell-based, methicillin-resistant Staphylococcus aureus; conditions: Staphylococcus aureus, 20 h
Procedure: as §1, §2

[4] = test system: MRSA N315 IR94; assay: MIC, agar plate dilution method; assay type: cell-based, methicillin-resistant Staphylococcus aureus; conditions: Staphylococcus aureus, 20 h
Procedure: as §1, §2

[5] = test system: A. calcoaceticus IFO2552; assay: MIC, agar plate dilution method; assay type: cell-based; conditions: Acinetobacter calcoaceticus
Procedure: as §1, §2

[6] = test system: C. freundii ATCC8090; assay: MIC, agar plate dilution method; assay type: cell-based; conditions: Citrobacter freundii
Procedure: as §1, §2

[7] = test system: E. aerogenes NCTC10006; assay: MIC, agar plate dilution method; assay type: cell-based; conditions: Klebsiella aerogenes
Procedure: as §1, §2

[8] = test system: E. cloacae IFO13535; assay: MIC, agar plate dilution method; assay type: cell-based; conditions: Enterobacter cloacae
Procedure: as §1, §2

[9] = test system: E. coli NIHJ JC-2; assay: MIC, agar plate dilution method; assay type: cell-based; conditions: Escherichia coli
Procedure: as §1, §2

[10] = test system: E. facecalis NTCT12201(VanA); assay: MIC, agar plate dilution method; assay type: cell-based
Procedure: as §1, §2

[11] = test system: E. faecalis ATCC21212; assay: MIC, agar plate dilution method; assay type: cell-based; conditions: Enterococcus faecalis
Procedure: as §1, §2

[12] = test system: E. faecium NTCT12203(VanA); assay: MIC, agar plate dilution method; assay type: cell-based; conditions: Enterococcus faecium
Procedure: as §1, §2

[13] = test system: K. pneumoniae NCTN9632; assay: MIC, agar plate dilution method; assay type: cell-based; conditions: Klebsiella pneumoniae
Procedure: as §1, §2

[14] = test system: M. luteus ATCC9341; assay: MIC, agar plate dilution method; assay type: cell-based; conditions: Micrococcus luteus
Procedure: as §1, §2

[15] = test system: M. morganii IID Kono; assay: MIC, agar plate dilution method; assay type: cell-based; conditions: Morganella morganii
Procedure: as §1, §2

[16] = test system: P. aeruginosa 46001; assay: MIC, agar plate dilution method; assay type: cell-based
Procedure: as §1, §2

[17] = test system: P. aeruginosa E-2; assay: MIC, agar plate dilution method; assay type: cell-based; conditions: Pseudomonas aeruginosa
Procedure: as §1, §2

[18] = test system: P. mirabilis IFO3849; assay: MIC, agar plate dilution method; assay type: cell-based; conditions: Proteus mirabilis
Procedure: as §1, §2

[19] = test system: P. vulgaris OX-19; assay: MIC, agar plate dilution method; assay type: cell-based; conditions: Proteus vulgaris
Procedure: as §1, §2

[20] = test system: S. aureus 8325(pEP2104); assay: MIC, agar plate dilution method; assay type: cell-based; conditions: Staphylococcus aureus, 20 h
Procedure: as §1, §2

[21] = test system: S. aureus 8325(pMS97); assay: MIC, agar plate dilution method; assay type: cell-based; conditions: Staphylococcus aureus, 20 h
Procedure: as §1, §2

[22] = test system: S. aureus FDA209P; assay: MIC, agar plate dilution method; assay type: cell-based; conditions: Staphylococcus aureus
Procedure: as §1, §2

[23] = test system: S. aureus ISP217; assay: MIC, agar plate dilution method; assay type: cell-based; conditions: Staphylococcus aureus
Procedure: as §1, §2

[24] = test system: S. aureus ISP447; assay: MIC, agar plate dilution method; assay type: cell-based; conditions: Staphylococcus aureus
Procedure: as §1, §2

[25] = test system: S. aureus Smith; assay: MIC, agar plate dilution method; assay type: cell-based; conditions: Staphylococcus aureus
Procedure: as §1, §2

[26] = test system: S. epidermidis IFO12648; assay: MIC, agar plate dilution method; assay type: cell-based; conditions: Staphylococcus epidermidis
Procedure: as §1, §2

[27] = test system: S. marcescens IFO12648; assay: MIC, agar plate dilution method; assay type: cell-based; conditions: Serratia marcescens
Procedure: as §1, §2

[28] = test system: clinical isolate of MRSA (K24 strain); assay: MRSA infectious model using silkworms; assay type: in vivo, silkworm; conditions: 72 hours after the inoculation
Procedure: As an alternative method for in vivo MRSA infection model using animals, the infection system using silkworms has been reported (Kaito et al, Microbial Pathogenesis, 32: 183-190, 2002). Effect of K04-0144A substance was measured according to this method.
Test organism used was the clinical isolate of MRSA (K24 strain). The MRSA was cultured statically using LB-10 medium (DIFCO) at 37° C. for 18 hours, and a 50 μl of the cultured strain was inoculated into the hemolymph of silkworm, 5 instar, 2nd day, (about 2 g, Ehime sansyu eggs Co., Japan). K04-0144A substance was prepared to a solution of 1 mg/ml, and 50 μl of the solution were administered by using syringe to the dorsal vessel of 5 silkworms infected with MRSA (25 mg/kg). Effect of the K04-0144A substance was evaluated by comparing the survival rate between a group with administering the sample and a group without administering the sample during the raising period of 72 hours after the inoculation. […] Further, all silkworms administered with 50 μl of MRSA bacterial suspension died within 72 hours after the inoculation.

[29] = test system: MRSA (Clinical isolate, the Kitasato Hospital, Japan); assay: Enhancing action of K04-0144D substance on antibiotic activities, broth microdilution method; assay type: cell-based, methicillin-resistant Staphylococcus aureus
[30] = test system: silkworms; assay: Toxicity against silkworms (substance only, no infection); assay type: in vivo, silkworm; conditions: 25 mg/kg, uninfected silkworms, 72 hours
[31] = Solubility in solvent; assay type: physicochemical; conditions: listed as K04-0144A substance

CN[C@H](CC(C)C)C(=O)N[C@H]1C(=O)N[C@@H](CC(N)=O)C(=O)N[C@H]2C(=O)N[C@H]3C(=O)N[C@H](C(=O)N[C@H](C(=O)O)c4cc(O)cc(O)c4-c4cc3ccc4O)[C@H](O)c3ccc(c(Cl)c3)Oc3cc2cc(c3O[C@@H]2O[C@H](CO)[C@@H](O)[C@H](O)[C@H]2O[C@H]2C[C@](C)(N)[C@H](O)[C@H](C)O2)Oc2ccc(cc2Cl)[C@H]1O [vancomycin, reference compound]
MIC ([1]; MRSA, 20 h): 0.5 µg/mL (≈ 0.345 µM) | MIC ([2]; MRSA, 20 h): 1 µg/mL (≈ 0.69 µM) | MIC [3]: 0.5 µg/mL (≈ 0.345 µM) | MIC [4]: 0.5 µg/mL (≈ 0.345 µM) | MIC ([5]; IFO2552, 20 h): > 32 µg/mL | MIC ([6]; ATCC8090, 20 h): > 32 µg/mL | MIC ([7]; NCTC10006, 20 h): > 32 µg/mL | MIC ([8]; IFO13535, 20 h): > 32 µg/mL | MIC ([9]; NIHJJC2, 20 h): > 32 µg/mL | MIC ([10]; 20 h): > 32 µg/mL | MIC ([11]; ATCC21212, 20 h): 4 µg/mL (≈ 2.76 µM) | MIC ([12]; 20 h): > 32 µg/mL | MIC ([13]; NCTN9632, 20 h): > 32 µg/mL | MIC ([14]; ATCC9341, 20 h): 1 µg/mL (≈ 0.69 µM) | MIC ([15]; 20 h): > 32 µg/mL | MIC ([16]; Pseudomonas aeruginosa, 46001, 20 h): > 32 µg/mL | MIC ([17]; E2, 20 h): > 32 µg/mL | MIC ([18]; IFO3849, 20 h): > 32 µg/mL | MIC ([19]; OX19, 20 h): > 32 µg/mL | MIC [20]: 2 µg/mL (≈ 1.38 µM) | MIC [21]: 1 µg/mL (≈ 0.69 µM) | MIC ([22]; FDA209P, 20 h): 1 µg/mL (≈ 0.69 µM) | MIC ([23]; ISP217, 20 h): 1 µg/mL (≈ 0.69 µM) | MIC ([24]; ISP447, 20 h): 1 µg/mL (≈ 0.69 µM) | MIC ([25]; 20 h): 1 µg/mL (≈ 0.69 µM) | MIC ([26]; IFO12648, 20 h): 1 µg/mL (≈ 0.69 µM) | MIC ([27]; IFO12648, 20 h): > 32 µg/mL | survival of silkworms infected with MRSA ([28]; 25 mg/kg): survived after 72 hours of the inoculation | enhancing action of K04-0144D substance on the antibiotic's activity ([29]; K04-0144D substance 16 μg/ml): no enhancing action | Ratio (−/+K04-0144D) ([29]; MIC alone / MIC with K04-0144D substance 16 μg/ml): 1 | MIC ([29]; Staphylococcus aureus, MRSA, read-out: Minimum Inhibitory Concentration (−)): 1 µg/mL

C=C(C/C=C(\C)CCC=C(C)C)CCC(C)(C)/C=C/CC/C(C)=C\COC(COP(=O)(O)OC1OC(C(N)=O)C(C)(O)C(OC(N)=O)C1OC1OC(COC2OC(CO)C(O)C(O)C2O)C(OC2OC(C)C(OC3OC(C(=O)O)C(O)C(O)C3O)C(O)C2NC(C)=O)C(O)C1NC(C)=O)C(=O)O (stereo not drawn) [K04-0144A]
MIC ([1]; MRSA 70, 37° C., 20 hours, read-out: MIC): 0.06 µg/mL (≈ 0.0403 µM) | MIC ([2]; MRSA 92-1191, 37° C., 20 hours, read-out: MIC): 0.25 µg/mL (≈ 0.168 µM) | MIC [3]: 0.125 µg/mL (≈ 0.084 µM) | MIC ([5]; A. calcoaceticus IFO2552, 37° C., 20 hours, read-out: MIC): 16 µg/mL (≈ 10.8 µM) | MIC ([6]; C. freundii ATCC8090, 37° C., 20 hours, read-out: MIC): > 16 µg/mL | MIC ([7]; E. aerogenes NCTC10006, 37° C., 20 hours, read-out: MIC): > 16 µg/mL | MIC ([8]; E. cloacae IFO13535, 37° C., 20 hours, read-out: MIC): > 16 µg/mL | MIC ([9]; NIHJJC2, E. coli NIHJ JC-2, 37° C., 20 hours, read-out: MIC): > 16 µg/mL | MIC ([10]; E. facecalis NTCT12201(VanA), 37° C., 20 hours, read-out: MIC): 1 µg/mL (≈ 0.672 µM) | MIC ([11]; E. faecalis ATCC21212, 37° C., 20 hours, read-out: MIC): 1 µg/mL (≈ 0.672 µM) | MIC ([12]; E. faecium NTCT12203(VanA), 37° C., 20 hours, read-out: MIC): > 16 µg/mL | MIC ([13]; K. pneumoniae NCTN9632, 37° C., 20 hours, read-out: MIC): > 16 µg/mL | MIC ([14]; M. luteus ATCC9341, 37° C., 20 hours, read-out: MIC): > 16 µg/mL | MIC ([15]; M. morganii IID Kono, 37° C., 20 hours, read-out: MIC): > 16 µg/mL | MIC ([16]; Pseudomonas aeruginosa, P. aeruginosa 46001, 37° C., 20 hours, read-out: MIC): > 16 µg/mL | MIC ([17]; E2, P. aeruginosa E-2, 37° C., 20 hours, read-out: MIC): > 16 µg/mL | MIC ([18]; P. mirabilis IFO3849, 37° C., 20 hours, read-out: MIC): > 16 µg/mL | MIC ([19]; OX19, P. vulgaris OX-19, 37° C., 20 hours, read-out: MIC): > 16 µg/mL | MIC [20]: 0.06 µg/mL (≈ 0.0403 µM) | MIC [21]: 0.5 µg/mL (≈ 0.336 µM) | MIC ([22]; S. aureus FDA209P, 37° C., 20 hours, read-out: MIC): 1 µg/mL (≈ 0.672 µM) | MIC ([23]; S. aureus ISP217, 37° C., 20 hours, read-out: MIC): 0.25 µg/mL (≈ 0.168 µM) | MIC ([24]; S. aureus ISP447, 37° C., 20 hours, read-out: MIC): 0.25 µg/mL (≈ 0.168 µM) | MIC ([25]; S. aureus Smith, 37° C., 20 hours, read-out: MIC): 1 µg/mL (≈ 0.672 µM) | MIC ([26]; S. epidermidis IFO12648, 37° C., 20 hours, read-out: MIC): 4 µg/mL (≈ 2.69 µM) | MIC ([27]; S. marcescens IFO12648, 37° C., 20 hours, read-out: MIC): > 16 µg/mL | survival of silkworms infected with MRSA ([28]; 25 mg/kg into dorsal vessel, untreated infected silkworms all died within 72 hours): all survived after 72 hours of the inoculation | toxicity against silkworms (survival, substance only) [30]: no toxicity against silkworms | Solubility in solvent [31]: Soluble in methanol and water DMSO; also recorded: Insoluble in acetone, chloroform and hexane
